Biological target: T1, HDAC6 (Homo sapiens, UniProt Q9UBN7)
T1 sequence (Q9UBN7 1-1215): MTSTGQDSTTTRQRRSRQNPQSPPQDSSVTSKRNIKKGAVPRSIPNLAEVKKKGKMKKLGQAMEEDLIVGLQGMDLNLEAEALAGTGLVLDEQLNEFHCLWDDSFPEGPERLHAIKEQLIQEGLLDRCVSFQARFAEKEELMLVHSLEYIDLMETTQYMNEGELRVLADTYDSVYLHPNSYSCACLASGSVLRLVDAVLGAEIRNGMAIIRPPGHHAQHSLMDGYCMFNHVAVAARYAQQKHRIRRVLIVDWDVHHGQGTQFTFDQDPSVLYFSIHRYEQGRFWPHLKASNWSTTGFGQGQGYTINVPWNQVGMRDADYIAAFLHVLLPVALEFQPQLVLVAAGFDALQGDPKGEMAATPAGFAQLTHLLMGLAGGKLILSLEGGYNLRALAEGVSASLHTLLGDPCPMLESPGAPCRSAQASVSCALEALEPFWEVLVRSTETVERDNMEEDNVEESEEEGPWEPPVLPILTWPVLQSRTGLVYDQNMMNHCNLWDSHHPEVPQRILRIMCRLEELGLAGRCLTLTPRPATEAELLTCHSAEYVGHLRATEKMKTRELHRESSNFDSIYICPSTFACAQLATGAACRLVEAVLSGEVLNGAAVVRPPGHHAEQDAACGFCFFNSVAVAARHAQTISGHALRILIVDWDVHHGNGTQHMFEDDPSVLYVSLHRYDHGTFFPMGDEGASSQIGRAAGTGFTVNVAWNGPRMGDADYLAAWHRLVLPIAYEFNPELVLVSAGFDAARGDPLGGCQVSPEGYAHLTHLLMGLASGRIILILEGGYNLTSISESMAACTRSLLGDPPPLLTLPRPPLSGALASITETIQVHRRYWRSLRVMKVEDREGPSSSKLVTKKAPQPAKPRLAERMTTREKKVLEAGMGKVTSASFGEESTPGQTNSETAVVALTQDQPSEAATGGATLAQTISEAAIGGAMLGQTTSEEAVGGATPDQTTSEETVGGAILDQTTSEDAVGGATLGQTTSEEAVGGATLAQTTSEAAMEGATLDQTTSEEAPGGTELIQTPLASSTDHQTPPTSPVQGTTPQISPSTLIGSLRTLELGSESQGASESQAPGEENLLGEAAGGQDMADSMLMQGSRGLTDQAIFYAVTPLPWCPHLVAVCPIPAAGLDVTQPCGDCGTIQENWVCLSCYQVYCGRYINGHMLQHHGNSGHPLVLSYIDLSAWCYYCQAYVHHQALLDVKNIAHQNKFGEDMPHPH
Assay: In vitro histone deacetylase assay: enzymatic HDAC6 electrophoretic mobility shift assay
Type: biochemical
Conditions: full length human recombinant HDAC6, 1 nM enzyme, 2 μM peptide substrate RHKK(Ac)-NH2, 25° C.; read-out: Inhibitory Concentration (IC50) Values for Representative Compounds against HDAC6, Activity Range

IC50 | SMILES
≤ 100 nM | COC(=O)N1Cc2ccc(C(=O)NO)cc2OC[C@@H]1C [methyl(S)-8-(hydroxycarbamoyl)-3-methyl-2,3-dihydrobenzo[f][1,4]oxazepine-4(5H)-carboxylate]
≤ 100 nM | C[C@H]1COc2cc(C(=O)NO)ccc2CN1C(=O)OC1CCOCC1 [tetrahydro-2H-pyran-4-yl(S)-8-(hydroxycarbamoyl)-3-methyl-2,3-dihydrobenzo[f][1,4]oxazepine-4(5H)-carboxylate]

— US11279681B2, “3-alkyl bicyclic [4,5,0] hydroxamic acids as HDAC inhibitors” (Valo Health, Inc., priority 2015, dated 2022)
